According to article PMC12598805, “Crystal Structure–Activity Relationship of Some MeO Phenylacrylonitriles: Dual Antimicrobial–Cytotoxic Effects and in Silico Perspectives” (ChemistryOpen, 2025):
Like-named read-outs stand apart in the source and are kept apart here.

What was measured:
Type in all cases: cell-based
[1] = tested on: human breast carcinoma (MCF‐7) cells; assay: Cytotoxicity, CCK8 cell viability; settings: for IC50: Homo sapiens, MCF7, read-out: Cytotoxic activity IC50
Excerpt: (§1) We investigated the cytotoxic effects of acrylonitrile derivatives 2(a–c) on human lung carcinoma (A549, CCL‐185) cells purchased from American Culture Collection and human breast carcinoma (MCF‐7) cells purchased from Republic of Turkey Ministry of Agriculture and Forestry Şap Institute, (HUKUK, 00092502), In addition, mouse fibroblast cells (L929, CCL‐1) purchased from American Culture Collection were used to observe the effects of the compounds on healthy cells. In 25 T Flask, A549 cells were grown in dulbecco's modified eagle's medium, MCF‐7, and L929 cells were grown in eagle's minimum essential medium (EMEM), 10% fetal bovine serum and 1% Penicillin‐Streptomycin at 37 °C in a 5% CO2 and 100% humidified incubator. Cell proliferation was checked every day. Cells were taken into the experiment when the cell density reached 70% to 80%. (See Supporting Information for experimental preparation of biological studies).
(§2) The compounds 2a, 2b, and 2c were dissolved in 99.8% Dimethyl sulfoxide (DMSO) respectively, as
(§3) 10 mM main stock. To prepare the doses of acrylonitrile compounds used in the experiment to be
(§4) applied to the cells, five different concentrations of 31.25; 62.5; 125; 250 and 500 μM were prepared
(§5) by diluting the main stock solutions (10 mM) with the medium selected according to the cells. 5-
(§6) Fluorouracil (5-FU) was selected as a positive control in the study. After the 5-FU main stock solution
(§7) was dissolved with DMSO to be 10 mM, the concentrations to be used were diluted with the selected
(§8) media and made ready for the experimental plan. The concentrations used for 5-FU were prepared in
(§9) the same doses used for acrylonitrile derivatives. For the negative control group, groups containing
(§10) only media and no substance were used. Prepared acrylonitrile compounds and 5-FU concentrations
(§11) were added to the wells in three replicates for each dose, and their effects on cell viability at 24 and 48
(§12) Trypan blue solution (Gibco, 1525061) was used to distinguish between living and dead cells in the
(§13) study. Trypan blue passes uncontrollably through the membrane of dead cells that have lost their cell
(§14) membrane integrity and stains the cell blue. Living cells, on the other hand, are not stained because
(§15) Live cell counts were performed using trypan blue using a
(§16) cell counter (Logos Luna II).
(§17) In order to detach the cells adhering to the flasks from the bottom, 500 μL of 0.25% Trypsin-EDTA
(§18) (Gibco, 15400054) solution was added and treated for five minutes.
(§19) detach from the bottom under an inverted microscope (Zeiss Primovert, Germany), medium containing
(§20) 10% FBS was added. After centrifugation at 300 g for 5 minutes and discarding the medium, 1 mL of
(§21) medium was added and the cells were seeded into 96-well culture dishes as 1x10^4 cells in 100 μL per
(§22) Cell Counting Kit 8 (CCK8; Medchem, 146436) was used to determine cell viability. After adding 20 μL
(§23) of CCK8 solution to each well in the dark, 96-well culture dishes were wrapped with aluminum foil and
(§24) kept in a CO2 incubator at 37 °C for 2 hr. Then, it was automatically read with a microplate reader
(§25) (Chromate) at 450 and 630 nm wavelengths. The following formula was used to determine cell
(§26) % Viability = (Sample Well−Blank) (Negative Control−Blank)×100 (1)
(§27) The half-maximal inhibitory concentration (IC50) was calculated as 50% cell death causing dose
(§28) compared to the control group. All data are given as the mean percent fraction of control ± SEM.
(§29) Statistical analysis was done by one-way analysis of variance (ANOVA), followed by Tukey’s multiple
(§30) comparison tests. IBM SPSS Statistics 22 was used to utilize statistical analysis. […]

[2] = tested on: human lung carcinoma (A549, CCL‐185) cells; assay: Cytotoxicity, CCK8 cell viability; settings: for suppressive effect on cell proliferation / viability: 31.25 to 500 μM; for cell suppressive effect: concentrations of 31.25, 62.5, 125 and 250 μM; for IC50: Homo sapiens, read-out: Cytotoxic activity IC50
Excerpt: as §1, §2, §3, §4, §5, §6, §7, §8, §9, §10, §11, §12, §13, §14, §15, §16, §17, §18, §19, §20, §21, §22, §23, §24, §25, §26, §27, §28, §29, §30

[3] = tested on: Micrococcus luteus (NRRL-B-1018); assay: Agar diffusion, zone of inhibition; settings: M.luteus, compounds at 50 mg mL^−1; for zone of inhibition at 50 mg/mL: Micrococcus luteus, NRRLB1018
Excerpt: (§31) The antibacterial and antifungal activities were reported utilizing the method described by the Clinical & Laboratory Standards Institute.^[ [31], [32] ^] Agar diffusion method was used to determine the antimicrobial activity of the synthesized substances. The media used were mueller hinton agar (MHA) for bacteria and sabouraud‐dextrose agar (SDA) for fungi (Merck), as recommended by the manufacturer.
(§32) The synthesized compounds were initially investigated for their antimicrobial activity to elucidate the potential therapeutic utility against various pathogenic microbes using the agar plate diffusion method. The compounds were tested at a concentration of 50 mg mL^−1, and the antibiotics (ampicillin, kanamycin, and amphotericin B) were used at 5 mg mL^−1. […] K.pneumoniae and B.cereus were resistant to ampicillin, while they were susceptible to kanamycin with inhibition values of 30 and 26 mm, respectively. No antimicrobial activity of the compounds was observed against E.faecalis, S.typhimurium, K.pneumoniae, and for the fungus compared to Amphotericin B (20 mm). […]
Micrococcus luteus (NRRL-B-1018) […]
(§33) ATCC: American Type Culture Collection; NRRL: Northern Regional Research Laboratory The compounds 2(a-c) obtained could only be completely solubilised with dimethyl sulphoxide (DMSO) and the highest possible stock solutions of 50 mg.mL-1 were prepared. To these wells 50 μl of the previously prepared substances were transferred using sterile micropipette tips. For comparison, Ampicillin and kanamycin antibiotics for bacteria and Amphotericin B antibiotics for fungus were used as positive controls and DMSO was used as negative control. The prepared petri plates were kept at +4°C for about 1 hour and then the bacterial cultures were incubated at 37°C for 18-24 hours and mould cultures at 27-30°C for 48-72 hours. The zones formed were measured millimetrically with callipers. The experiments were performed with three repetitions. […]

[4] = tested on: Enterococcus faecalis (ATCC 29212); assay: Agar diffusion, zone of inhibition; settings: ATCC29212, E.faecalis, compounds at 50 mg mL^−1
Excerpt: as §31, §32
Enterococcus faecalis (ATCC 29212) […]
as §33

Compound | IC50 ([1]; MCF‐7, 24 h) [µM] | IC50 ([1]; MCF‐7, 48 h) [µM] | decrease in cell viability ([1]; MCF‐7, 24 h, 31.25 μM) [%] | decrease in cell viability ([1]; MCF‐7, 24 h, 62.5 μM) [%] | decrease in cell viability ([1]; MCF‐7, 24 h, 125 μM) [%] | decrease in cell viability ([1]; MCF‐7, 24 h, 250 μM) [%] | decrease in cell viability ([1]; MCF‐7, 24 h, 500 μM) [%] | decrease in cell viability ([1]; MCF‐7, 48 h, 31.25 μM) [%] | decrease in cell viability ([1]; MCF‐7, 48 h, 62.5 μM) [%] | decrease in cell viability ([1]; MCF‐7, 48 h, 125 μM) [%] | decrease in cell viability ([1]; MCF‐7, 48 h, 250 μM) [%] | decrease in cell viability ([1]; MCF‐7, 48 h, 500 μM) [%] | decrease in cell viability ([2]; A549, 24 h, 500 μM) [%] | suppressive effect on cell proliferation / viability ([2]; A549, 24 h) | decrease in cell viability ([2]; A549, 48 h, 500 μM) [%] | IC50 ([2]; A549, 24 h) [µM] | IC50 ([2]; A549, 48 h) [µM] | zone of inhibition [3] [mm] | zone of inhibition at 50 mg/mL [3] [mm] | zone of inhibition at 50 mg/mL [4] [mm] | other results
COc1ccc(C=C(C#N)c2ccccc2)cc1 [2a, 3‐(4‐methoxyphenyl)‐2‐phenylacrylonitrile] | 131 | 44 | 32 | 32 | 48 | 75 | 92 | 44 | 60 | 60 | 60 | 99 | 20 | did not show any cytotoxic activity | 94 | > 500 | 373 | 14 ± 0.71 | 14 | < 6 | cell suppressive effect ([2]; A549, 24 h): no cell suppressive effect; decrease in cell viability ([2]; A549, 48 h, 250 μM): 8%
COc1ccc(/C=C(\C#N)c2ccc(F)cc2)cc1 [2b] | 363 | 34 | 23 | 26 | 17 | 23 | 82 | 49 | 68 | 71 | 86 | 91 | 9 | – | 71 | > 500 | 422 | 14 ± 0.71 | 14 | < 6 | cell suppressive effect ([2]; A549, 24 h): no cell suppressive effect; cell suppressive effect ([2]; A549, 48 h): no cell suppressive effect
COc1ccc(/C=C(\C#N)c2cc(C(F)(F)F)cc(C(F)(F)F)c2)cc1 [2c] | 409 | 294 | 9 | 10 | 11 | 17 | 69 | 25 | 27 | 26 | 42 | 85 | – | no suppressive effect | 56 | > 500 | 473 | 15 ± 0.71 | 15 | < 6 | –
